# Patent US20240076347A1, “METHODS FOR PREVENTING FUNGAL INFECTIONS” (Cidara Therapeutics, Inc., priority 2016, published 2024)
# Numbered stars: 1 amine (or outer) side, 2 acyl side, 3 side chain; on linkers, the order of the positions; unused ones are H or OH. Bridge positions count the residues as written; N and C are the ends. Square brackets hold non-standard residues; d marks the D form. Peptide text beside a SMILES is read from it. * marks the point of attachment. ξ: configuration not given here. Orn(4R-OH,5R-OCH2CH2NMe3+) = C[N+](C)(C)CCO[C@@H](N[*:3])[C@H](O)C[C@H](N[*:1])C(=O)[*:2]; pTerphenylCO(4''-OnC5H11) = CCCCCOc1ccc(-c2ccc(-c3ccc(C(=O)*)cc3)cc2)cc1; hTyr(3S-OH,4S-OH) = N[C@H](C(=O)O)[C@H](O)[C@@H](O)c1ccc(O)cc1; X1 = C[C@H]1CN([*:1])C(C(=O)[*:2])C1O; Hyp = O=C(O)[C@@H]1C[C@@H](O)CN1; ξT = CC(O)C(N)C(=O)O
# How the values were obtained:
# [1] = Early pharmacokinetic studies, SC tolerability; format: in vivo, rats and monkeys; details: lower doses (≤5 mg/kg)
# C. albicans biofilms = experiment: Time lapse microscopy of biofilm formation; format: cell-based, Candida albicans; details: up to 16 h
# Description: The effective CD101 concentration obtained from the above experiments was used to monitor its effect on biofilm formation in real time using TLM, which involves capturing real-time images of a single frame at specific time intervals, allowing temporal monitoring of the interactions occurring between the drug and Candida biofilms. Captured images were combined in a time sequence, resulting in an animation depicting the sequence of events that occurred with the passage of time. Briefly, the discs with C. albicans (adhered for 90 min as above) were placed in a 35-mm-diameter glass-bottom Petri dish (MiTek Corp., Ashland, MA). […] Phase contrast images for this interaction were captured immediately from 0 h and followed up to 16-17 h on a Leica DMI 6000 B inverted microscope connected to a Retiga EXi Aqua camera (Q-imaging Vancouver British Columbia). To determine the structural changes in the maturing biofilm, both acquisition and analysis of a series of horizontal (xy) optical sections of the biofilm was done using Metamorph Imaging software (Molecular Devices, Downington, PA). Disc incubated with media alone was used as control.
# [2] = Tissue distribution in SD rats after IV dose; format: in vivo; details: Sprague-Dawley, rat, 5 mg/kg IV
# Experimental: The in vitro activity of CD101 was evaluated against 153 A. fumigatus clinical isolates collected as part of the 2014 and 2015 JMI international SENTRY surveillance program. Susceptibility was determined by measuring the minimal effective concentration (MEC) values in accordance with CLSI broth microdilution guidelines (M38-A2). In vivo tissue distribution of CD101 in SD rats (N=3/time up to 5 d) after a 5 mg/kg IV CD101 dose. Plasma/tissue concentrations were measured by LC-MS/MS.
# [3] = Single-dose plasma pharmacokinetics in mice, IP; format: in vivo; details: IP doses of 1, 4, 16 and 64 mg/kg; for half-life: read-out: elimination half-life, range
# Experimental: Pharmacokinetics. […] Plasma from groups of three mice per time point (1, 3, 6, 12, 24, 48, and 72-h) was collected. The plasma drug concentrations were determined by liquid chromatography-tandem mass spectrometry. A noncompartmental model was used in the pharmacokinetic analysis. Elimination half-life was calculated by nonlinear least-squares technique. The area under the concentration-time curve (AUC) was calculated by the trapezoidal rule. Pharmacokinetic exposures for doses not directly measured in the PK study were estimated by linear extrapolation for higher and lower dose levels and by interpolation for dose levels within the dose range studied given the linear PK results. Protein binding was 99.2%.
# [4] = system: Candida albicans ATCC SC5314; experiment: Prophylaxis, neutropenic ICR mouse candidiasis model, kidney CFU; format: in vivo
# Experimental: Candidiasis model: ICR mice (5/group) were rendered neutropenic by cyclophosphamide on Day −4 (150 mg/kg) and Day −1 (100 mg/kg), then challenged (Day 0) with Candida albicans ATCC SC5314 via IV (100 μL, […] CFU/mouse). Prior to challenge, mice were given one SC dose (5, 10, or 20 mg/kg) of CD101 on Day −5, Day −3, or Day −1. At 24 hours post-challenge, kidneys were removed for CFU enumeration.
structure (smiles),measurement,setting,value
"CCCCCOc1ccc(-c2ccc(-c3ccc(C(=O)N[C@H]4C[C@@H](O)[C@@H](OCC[N+](C)(C)C)NC(=O)C5C(O)[C@@H](C)CN5C(=O)[C@H]([C@@H](C)O)NC(=O)[C@H]([C@H](O)[C@@H](O)c5ccc(O)cc5)NC(=O)[C@@H]5C[C@@H](O)CN5C(=O)C(C(C)O)NC4=O)cc3)cc2)cc1 (stereo partly drawn) [CD101] ({pTerphenylCO(4''-OnC5H11)}-[Orn(4R-OH,5R-OCH2CH2NMe3+)][ξT][Hyp][hTyr(3S-OH,4S-OH)]T[X1]; lactam 1-C)",tolerability of subcutaneous administration,[1],well-tolerated
same,biofilm formation in real time,C. albicans biofilms; 0.25 μg/ml added to 3 h formed biofilms,remained stunted and failed to grow into mature biofilms
same,biofilm formation in real time,C. albicans biofilms; 0.25 μg/ml added to cells adhered 90 min,"only adhered cells with stunted growth, which failed to grow into mature biofilms"
same,half-life,"[2]; plasma, read-out: t1/2 in plasma (converted)",39 h
same,half-life,"[2]; all tissues studied, read-out: t1/2 in tissues",40 to 77 h
same,Kp,"[2]; liver, kidney, lung, spleen, read-out: tissue/plasma exposure ratios",~4
same,AUC,"[3]; ICR Swiss/CD1, mouse, read-out: AUC0-, range",93.2 to 40500 µg·h/mL
same,Cmax,"[3]; ICR Swiss/CD1, mouse, read-out: Peak (Cmax) levels, range",2600 to 76700 ng/mL
same,half-life,"[3]; ICR Swiss/CD1, mouse",28 to 41 h
same,half-life,[3]; mouse,29 to 41 h
same,kidney CFU,"[4]; 10 mg/kg SC single dose at Day −3 and Day −1, 24 h post-challenge, all animals",Complete clearance
same,kidney CFU,"[4]; 20 mg/kg SC on Day −3, all but one animal",Complete clearance
same,kidney CFU,"[4]; 20 mg/kg SC on Day −5, −3 or −1",reduced CFU burden regardless of prophylactic treatment day
same,kidney CFU,[4]; 5 or 10 mg/kg SC at Day −3 and Day −1,significant decrease in CFU
